Measurements: the CheMixHub viscosity set
± gives the uncertainty stated by the source.

Assay: xn = mol fraction of the nth substance listed

CCCCOCCOCCOCCCC + CCOC(=O)OCC
viscosity [mPa·s], 101.3 kPa
Conditions	298.15 K	308.15 K	318.15 K
x1 = 0.0131	0.771 ± 0.011	0.675 ± 0.009	0.587 ± 0.008
x1 = 0.0338	0.806 ± 0.011	0.699 ± 0.01	0.603 ± 0.009
x1 = 0.0756	0.864 ± 0.012	0.751 ± 0.01	0.638 ± 0.009
x1 = 0.1533	0.976 ± 0.013	0.842 ± 0.012	0.707 ± 0.01
x1 = 0.2472	1.118 ± 0.015	0.949 ± 0.013	0.792 ± 0.011
x1 = 0.3392	1.245 ± 0.017	1.056 ± 0.015	0.871 ± 0.012
x1 = 0.4137	1.359 ± 0.019	1.14 ± 0.016	0.94 ± 0.013
x1 = 0.425	1.379 ± 0.019	1.153 ± 0.016	0.95 ± 0.014
x1 = 0.4831	1.457 ± 0.02	1.22 ± 0.017	1.002 ± 0.014
x1 = 0.6085	1.63 ± 0.023	1.357 ± 0.02	1.105 ± 0.016
x1 = 0.7927	1.892 ± 0.028	1.556 ± 0.023	1.255 ± 0.019
x1 = 0.8959	2.018 ± 0.03	1.656 ± 0.025	1.328 ± 0.02
x1 = 0.954	2.116 ± 0.032	1.734 ± 0.026	1.383 ± 0.021

C=C1CCC2CC1C2(C)C (stereo not given) + COC(C)(C)C
298.15 K, 101.33 kPa
Conditions	viscosity [mPa·s]
x2 = 0.0493	1.485 ± 0.011
x2 = 0.1076	1.364 ± 0.01
x2 = 0.2248	1.142 ± 0.0088
x2 = 0.354	0.93 ± 0.0074
x2 = 0.439	0.8092 ± 0.0067
x2 = 0.5239	0.7038 ± 0.0062
x2 = 0.6457	0.5826 ± 0.0056
x2 = 0.7594	0.4855 ± 0.0052
x2 = 0.8663	0.41 ± 0.0049
x2 = 0.9007	0.3873 ± 0.0048
x2 = 0.9651	0.3495 ± 0.0047

CCCCO + CCCO
Conditions	viscosity [mPa·s]
293.15 K, 101.33 kPa, x2 = 0.152	2.84 ± 0.082
293.15 K, 101.33 kPa, x2 = 0.3302	2.715 ± 0.079
293.15 K, 101.33 kPa, x2 = 0.5008	2.566 ± 0.075
293.15 K, 101.33 kPa, x2 = 0.616	2.474 ± 0.072
293.15 K, 101.33 kPa, x2 = 0.7172	2.41 ± 0.071
293.15 K, 101.33 kPa, x2 = 0.8933	2.282 ± 0.067
298.15 K, 101 kPa, x1 = 0.1009	2.024 ± 0.027
298.15 K, 101 kPa, x1 = 0.2	2.082 ± 0.027
298.15 K, 101 kPa, x1 = 0.3013	2.135 ± 0.028
298.15 K, 101 kPa, x1 = 0.4026	2.194 ± 0.029
298.15 K, 101 kPa, x1 = 0.5009	2.254 ± 0.03
298.15 K, 101 kPa, x1 = 0.6055	2.319 ± 0.031
298.15 K, 101 kPa, x1 = 0.6279	2.326 ± 0.031
298.15 K, 101 kPa, x1 = 0.7983	2.432 ± 0.032
298.15 K, 101 kPa, x1 = 0.8992	2.494 ± 0.033
298.15 K, 101.33 kPa, x2 = 0.1147	2.507 ± 0.073
298.15 K, 101.33 kPa, x2 = 0.3211	2.378 ± 0.07
298.15 K, 101.33 kPa, x2 = 0.4966	2.261 ± 0.067
298.15 K, 101.33 kPa, x2 = 0.6315	2.172 ± 0.064
298.15 K, 101.33 kPa, x2 = 0.7297	2.118 ± 0.063
298.15 K, 101.33 kPa, x2 = 0.9322	2.001 ± 0.06

CN1CCCN2CCCN=C12 + CC(=O)O
100 kPa, x1 = 0.1125
Conditions	viscosity [mPa·s]
294.45 K	12.9 ± 1.6
298.17 K	11.3 ± 1.4
308.1 K	8.1 ± 1
323.06 K	5.4 ± 0.7
